Values quoted from earlier work in US20250282901A1, “POLYMERIC CHELATORS CROSS-LINKED WITH HIGH MOLECULAR WEIGHT CROSS-LINKERS” (THE UNIVERSITY OF KANSAS, priority 2021, published 2025).

- relative iron binding constant (Fe(III)): 35.5
SMILES: O=C(N[C@H]1COC(=O)[C@@H](NC(=O)c2cccc(O)c2O)COC(=O)[C@@H](NC(=O)c2cccc(O)c2O)COC1=O)c1cccc(O)c1O [Enterobactin]
- Log K (natural iron chelator): 52
